According to patent publication US10064928B2, “Peptides and combination of peptides for use in immunotherapy against CLL and other cancers” (IMMATICS BIOTECHNOLOGIES GMBH, priority 2015, dated 2018):

Columns and labels:
CD8+ T cells = assay: In vitro T-cell priming assay with aAPCs loaded with peptide/MHC and anti-CD28, multimer readout; format: cell-based, human; details: in vitro immunogenicity, HLA-A*02 restricted peptides; percentage of positive wells
Source text: In order to obtain information regarding the immunogenicity of the TUMAPs of the present invention, the inventors performed investigations using an in vitro T-cell priming assay based on repeated stimulations of CD8+ T cells with artificial antigen presenting cells (aAPCs) loaded with peptide/MHC complexes and anti-CD28 antibody.
In order to perform in vitro stimulations by artificial antigen presenting cells loaded with peptide-MHC complex (pMHC) and anti-CD28 antibody, the inventors first isolated CD8+ T cells from fresh HLA-A*02 leukapheresis products via positive selection using CD8 microbeads (Miltenyi Biotec, Bergisch-Gladbach, Germany) of healthy donors obtained from the University clinics Mannheim, Germany, after informed consent.
PBMCs and isolated CD8+ lymphocytes were incubated in T-cell medium (TCM) until use consisting of RPMI-Glutamax (Invitrogen, Karlsruhe, Germany) supplemented with 10% heat inactivated human AB serum (PAN-Biotech, Aidenbach, Germany), 100 U/ml Penicillin/100 μg/ml Streptomycin (Cambrex, Cologne, Germany), 1 mM sodium pyruvate (CC Pro, Oberdorla, Germany), 20 μg/ml Gentamycin (Cambrex). 2.5 ng/ml IL-7 (PromoCell, Heidelberg, Germany) and 10 U/ml IL-2 (Novartis Pharma, Nürnberg, Germany) were also added to the TCM at this step.
Generation of pMHC/anti-CD28 coated beads, T-cell stimulations and readout was performed in a highly defined in vitro system using four different pMHC molecules per stimulation condition and 8 different pMHC molecules per readout condition.
The purified co-stimulatory mouse IgG2a anti human CD28 Ab 9.3 (Jung et al., 1987) was chemically biotinylated using Sulfo-N-hydroxysuccinimidobiotin as recommended by the manufacturer (Perbio, Bonn, Germany). Beads used were 5.6 μm diameter streptavidin coated polystyrene particles (Bangs Laboratories, Illinois, USA).
800.000 beads/200 μl were coated in 96-well plates in the presence of 4×12.5 ng different biotin-pMHC, washed and 600 ng biotin anti-CD28 were added subsequently in a volume of 200 μl. Stimulations were initiated in 96-well plates by co-incubating […] CD8+ T cells with 2×10^5 washed coated beads in 200 μl TCM supplemented with 5 ng/ml IL-12 (PromoCell) for 3 days at 37° C. Half of the medium was then exchanged by fresh TCM supplemented with 80 U/ml IL-2 and incubating was continued for 4 days at 37° C. This stimulation cycle was performed for a total of three times. For the pMHC multimer readout using 8 different pMHC molecules per condition, a two-dimensional combinatorial coding approach was used as previously described (Andersen et al., 2012) with minor modifications encompassing coupling to 5 different fluorochromes. Finally, multimeric analyses were performed by staining the cells with Live/dead near IR dye (Invitrogen, Karlsruhe, Germany), CD8-FITC antibody clone SK1 (BD, Heidelberg, Germany) and fluorescent pMHC multimers. For analysis, a BD LSRII SORP cytometer equipped with appropriate lasers and filters was used. Peptide specific cells were calculated as percentage of total CD8+ cells. Evaluation of multimeric analysis was done using the FlowJo software (Tree Star, Oreg., USA). In vitro priming of specific multimer+CD8+ lymphocytes was detected by comparing to negative control stimulations.

HLA-A*02:01 = HLA-A*02:01 (Homo sapiens, UniProt P04439, D140Y/D185E/D98H/E176V/E277Q/G131W/G231S/I119V/I121R/I166T/I218V/L300P/L318F/N151K/N90K/P208A/P217A/Q86G/Q94H/R138H/R169H/T345S); assay: MHC binding assay (UV-ligand exchange, beta2m ELISA); details: binding of HLA-class I restricted peptides to HLA-A*02:01, β2m ELISA
Procedure, shortened: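 UV-cleavable peptide in HLA monomers exchanged for test peptide by UV irradiation; exchange yield measured by streptavidin-capture ELISA with HRP anti-β2m (TMB, 450 nm) on 100-fold diluted complexes. Quantified against refolded HLA-A*02:01/MLA-001 standards (15-500 ng/ml).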

Substance	Wells positive [%] (CD8+ T cells)	Peptide Exchange (MHC class I binding score, peptide exchange yield) (HLA-A*02:01)
332 (VMIQHVENL; listed as Homo sapiens) [compound 332]	“+” (<20% = +)	“+++” (≥50 = +++)
380 (YLDRKLLTL; listed as Homo sapiens) [compound 380]	“++++” (>=70% = ++++)	“+++” (≥50 = +++)
